Patent publication US20040147500A1, “Injectable galenic formulation for use in a diagnosis or a photodynamic therapy and method for preparing same” (priority 2001, published 2004)

Experiments:
[1] = system: rats (Sprague Dawley), rabbits (New-Zealand albino), monkeys (Cynomolgus); type: in vivo; details: intravenous, injection speeds up to 4 ml/min
Procedure: Male rats (Sprague Dawley): 6 to 12 animals for each dose (2×5, 2×10 and 2×20 mg/kg. The product was injected intravenously into the caudal vein.
Rabbits (New-Zealand albino rabbits): 5 animals received the dose of 5 mg/kg. The product was injected three times intravenously, once intra-arterially and once perivenously.
Monkeys (Cynomolgus, of a weight varying from 2.5 to 3.2 kg): 6 to 10 animals of each sex for each dose (1, 2, 5 and 6 mg/kg). The product was injected intravenously into the saphenous vein or into the cephalic vein, once each day during 14 days.
Monkeys (Cyonomolgus of a weight varying from 2.25 to 4.7 kg): 3 to 6 animals for each dose (2 and 5 mg/kg). The product was injected intravenously into the saphenous vein or into the cephalic vein.
The assessment of the animals was made on the basis of clinical signs, biological analyses carried out on the blood and on the urine, cardiovascular examinations and of histopathological examinations.

[2] = system: mice (OF), rats (Sprague Dawley), monkeys (Cynomolgus); type: in vivo; details: intravenous, provided the injections were made slowly
Procedure: 1—Mice (OF, of a weight varying from 25 to 35 grams): 10 animals of each sex for each dose (2×25, 2×50, 2×75 and 1×100 mg/kg).The product was injected into the caudal vein.
2—Rats (Sprague Dawley, of a weight varying from 150 to 230 grams): 4 to 10 animals of each sex for each dose (from 4 to 200 mg/kg). The product was injected into the caudal vein.
3—Monkeys (Cynomolgus of a weight varying from 1.8 kg to 3.5 kg): 1 animal of each sex for each dose (8, 16 and 24 mg/kg). The product was injected into the saphenous vein or into the cephalic vein once a day during 7 days.
The assessment of the animals was made on the basis of clinical signs, biological analyses carried out on the blood and the urine and of histopathological examinations.

[3] = in vivo; cited from earlier work

Substance: Pd-bacteriopheophorbide a [Pd-Bpheide a]
- tolerance in toxicity studies [1]: well tolerated
- tolerance in toxicity studies [2]: well tolerated
- cutaneous and ocular photosensitisation [3]: no or little cutaneous photosensitisation
